# Patent EP4818168A1, “FUSED RING COMPOUND, PHARMACEUTICAL COMPOSITION THEREOF AND USE THEREOF” (priority 2023, dated 2025)
# Test system: H82 cells
# Assay: cells
# Assay type: cell-based
# Details: Homo sapiens, NCI-H82, read-out: IC50 in H82 Cells
# Protocol: CellTiter-Glo (CTG) is a rapid cell viability test method based on ATP detection. […] Adenosine triphosphate (ATP) participates in various enzymatic reactions in organisms and is an indicator of living cell metabolism. Its content directly reflects the number of living cells and cell status. During the experiment, equal volume of CTG reagent is added to the cultured cells to measure the luminescence value. The chemiluminescent signal value is proportional to the amount of ATP, thus reflecting the number of viable cells. Therefore, cell viability can be obtained by detecting the ATP content. Compounds that affect cell viability will inhibit cell viability in a concentration-dependent manner, allowing a curve to be fitted to obtain the IC50 value.
# The experimental procedure is as follows: • 11. Place the cell suspension in a 15 mL centrifuge tube, centrifuge at 1000 rpm for 5 min at room temperature, discard the supernatant, and collect the cell pellet. • 12. Resuspend the cell pellet with preheated complete cell culture medium (RPMI1640+10%FBS+1%PS), and use a Countess® automated cell counter to detect cell viability and density. […] Transfer the compound solution to a 96-well plate seeded with cells (final concentration of DMSO 0.1%), and place in a cell incubator at 37°C, 5% CO2 for 6 days. • 15. […] Protect from light during the whole process. Perform optical signal readings using a SpectraMax i3x reader. • 16. Data analysis: Remaining activity (%) = 100% * (1 - ((LumDMSO - Lummedium) - Lumsample) / (LumDMSO - LumPBS/medium)). Use GraphPad Prism 9.0 software to draw an S-shaped dose-survival rate curve and calculate the IC50 value using a nonlinear regression model.
row,Compound,IC50 [nM]
1,O=C1CCN(c2ccc(N3CC(N4CCN(Cc5ccc(Nc6ncc7c(n6)-c6ccc(Cl)cc6C(c6c(F)cccc6F)=NC7)cc5)C(=O)C4)C3)nc2)C(=O)N1 [Compound A267],< 1000

# Same assay, conditions: Homo sapiens, NCI-H82; H82 cells, 4000 cells/well, CellTiter-Glo; read-out: IC50 in H82 Cells
row,Compound,IC50 [nM]
1,O=C1CCN(c2ccc(N3CCN(CCC(=O)Nc4ccc(Nc5ncc6c(n5)-c5ccc(Cl)cc5C(c5c(F)cccc5F)=NC6)cc4)CC3)cc2)C(=O)N1 [Compound A104],< 1000
2,O=C1CCN(c2ccc(NCCN3CCn4c(cnc4-c4ccc(Nc5ncc6c(n5)-c5ccc(Cl)cc5C(c5c(F)cccc5F)=NC6)cc4)C3)cc2)C(=O)N1 [Compound A107],< 1000
3,O=C1CCN(c2ccc(N3CCN(C(=O)[C@H]4CN(c5ccc(Nc6ncc7c(n6)-c6ccc(Cl)cc6C(c6c(F)cccc6F)=NC7)cc5)CCO4)CC3)nc2)C(=O)N1 [Compound A325],< 1000
4,O=C1CCN(c2cnc(N3CC(CN4CCN(c5ccc(Nc6ncc7c(n6)-c6ccc(Cl)cc6C(c6c(F)cccc6F)=NC7)cc5)C(=O)C4)C3)s2)C(=O)N1 [Compound A203],< 1000
5,Cc1cc(N2CCC3(CC2)CC(NC(=O)c2ccc(Nc4ncc5c(n4)-c4ccc(Cl)cc4C(c4c(F)cccc4F)=NC5)cc2)C3)ncc1N1CCC(=O)NC1=O [Compound A110],< 1000
6,O=C1CCN(c2ccc(N3CC(CN4CCN(C(=O)C56CC(Nc7ncc8c(n7)-c7ccc(Cl)cc7C(c7c(F)cccc7F)=NC8)(C5)C6)CC4)C3)nc2)C(=O)N1 [Compound A279],< 1000
7,O=C1CCN(c2ccc(N3CCC(C(=O)N4CCN(c5ccc(Nc6ncc7c(n6)-c6ccc(Cl)cc6C(c6nccs6)=NC7)cc5)CC4)CC3)nc2)C(=O)N1 [Compound A320],< 1000
8,O=C1CCN(c2cncc(N3CCN(C4CN(c5cccc(Nc6ncc7c(n6)-c6ccc(Cl)cc6C(c6c(F)cccc6F)=NC7)c5)C4)CC3)c2)C(=O)N1 [Compound A183],< 1000
9,O=C1CCN(c2ccc(N3CCOC(C(=O)N4CCN(c5ccc(Nc6ncc7c(n6)-c6ccc(Cl)cc6C(c6c(F)cccc6F)=NC7)cc5)CC4)C3)nc2)C(=O)N1 (stereo not drawn) [Compound A285],< 1000
10,Cc1c(N2CCC(N3Cc4ccc(Nc5ncc6c(n5)-c5ccc(Cl)cc5C(c5c(F)cccc5F)=NC6)cc4C3)CC2)cccc1N1CCC(=O)NC1=O [Compound A179],< 1000

# Biological target: T1, AURKA (Homo sapiens, UniProt O14965)
# T1 construct: endogenous in cells; host or cells: Jurkat cells
# T1 sequence (O14965 1-403): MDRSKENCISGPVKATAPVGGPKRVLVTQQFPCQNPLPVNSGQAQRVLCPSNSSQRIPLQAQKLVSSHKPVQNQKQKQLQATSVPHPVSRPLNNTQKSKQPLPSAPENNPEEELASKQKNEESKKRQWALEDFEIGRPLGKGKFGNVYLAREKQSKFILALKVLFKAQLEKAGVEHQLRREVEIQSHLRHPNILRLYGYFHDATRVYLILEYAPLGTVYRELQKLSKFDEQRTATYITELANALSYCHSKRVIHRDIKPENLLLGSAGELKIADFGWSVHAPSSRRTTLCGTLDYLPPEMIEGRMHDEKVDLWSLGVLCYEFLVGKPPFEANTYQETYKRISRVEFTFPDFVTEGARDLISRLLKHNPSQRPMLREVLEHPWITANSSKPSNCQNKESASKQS
# Assay: not given
# Assay type: cell-based
# Details: not given
# Outline: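 AURKA degradation read by western blot: band signal, fluorescent or chemiluminescent, curve-fitted to derive DC50. Cells were Jurkat, plated at 1×10^6 cells/500 µL with compound, then lysed and blotted onto nitrocellulose, primary antibody overnight at 4°C.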
Compound,Percentage of AURKA Degradation Induced by 100 nM Compound in Jurkat Cells,Percentage of AURKA Degradation Induced by 1 µM Compound in Jurkat Cells
O=C1CCN(c2ccc(N3CC(N4CCN(Cc5ccc(Nc6ncc7c(n6)-c6ccc(Cl)cc6C(c6c(F)cccc6F)=NC7)cc5)C(=O)C4)C3)nc2)C(=O)N1 [Compound A267],++ (key: +: Degradation ≤ 30%; ++: 30% < Degradation ≤ 70%; +++: Degradation > 70%),+++ (key: +: Degradation ≤ 30%; ++: 30% < Degradation ≤ 70%; +++: Degradation > 70%)

# Same assay, conditions: 100 nM compound, Jurkat cells, 24 h, Table 2
row,Compound,Percentage of AURKA Degradation Induced by 100 nM Compound in Jurkat Cells
1,O=C1CCN(c2ccc(N3CCN(CCC(=O)Nc4ccc(Nc5ncc6c(n5)-c5ccc(Cl)cc5C(c5c(F)cccc5F)=NC6)cc4)CC3)cc2)C(=O)N1 [Compound A104],+++ (Degradation > 70%)
2,O=C1CCN(c2ccc(NCCN3CCn4c(cnc4-c4ccc(Nc5ncc6c(n5)-c5ccc(Cl)cc5C(c5c(F)cccc5F)=NC6)cc4)C3)cc2)C(=O)N1 [Compound A107],++ (30% < Degradation ≤ 70%)
3,O=C1CCN(c2ccc(N3CCN(C(=O)[C@H]4CN(c5ccc(Nc6ncc7c(n6)-c6ccc(Cl)cc6C(c6c(F)cccc6F)=NC7)cc5)CCO4)CC3)nc2)C(=O)N1 [Compound A325],+++ (Degradation > 70%)
4,O=C1CCN(c2cnc(N3CC(CN4CCN(c5ccc(Nc6ncc7c(n6)-c6ccc(Cl)cc6C(c6c(F)cccc6F)=NC7)cc5)C(=O)C4)C3)s2)C(=O)N1 [Compound A203],++ (30% < Degradation ≤ 70%)
5,Cc1cc(N2CCC3(CC2)CC(NC(=O)c2ccc(Nc4ncc5c(n4)-c4ccc(Cl)cc4C(c4c(F)cccc4F)=NC5)cc2)C3)ncc1N1CCC(=O)NC1=O [Compound A110],++ (30% < Degradation ≤ 70%)
6,O=C1CCN(c2ccc(N3CC(CN4CCN(C(=O)C56CC(Nc7ncc8c(n7)-c7ccc(Cl)cc7C(c7c(F)cccc7F)=NC8)(C5)C6)CC4)C3)nc2)C(=O)N1 [Compound A279],+++ (Degradation > 70%)
7,O=C1CCN(c2ccc(N3CCC(C(=O)N4CCN(c5ccc(Nc6ncc7c(n6)-c6ccc(Cl)cc6C(c6nccs6)=NC7)cc5)CC4)CC3)nc2)C(=O)N1 [Compound A320],+++ (Degradation > 70%)
8,O=C1CCN(c2cncc(N3CCN(C4CN(c5cccc(Nc6ncc7c(n6)-c6ccc(Cl)cc6C(c6c(F)cccc6F)=NC7)c5)C4)CC3)c2)C(=O)N1 [Compound A183],+++ (Degradation > 70%)
9,O=C1CCN(c2ccc(N3CCOC(C(=O)N4CCN(c5ccc(Nc6ncc7c(n6)-c6ccc(Cl)cc6C(c6c(F)cccc6F)=NC7)cc5)CC4)C3)nc2)C(=O)N1 (stereo not drawn) [Compound A285],+++ (Degradation > 70%)
10,Cc1c(N2CCC(N3Cc4ccc(Nc5ncc6c(n5)-c5ccc(Cl)cc5C(c5c(F)cccc5F)=NC6)cc4C3)CC2)cccc1N1CCC(=O)NC1=O [Compound A179],++ (30% < Degradation ≤ 70%)

# Same assay, conditions: 1 µM compound, Jurkat cells, 24 h, Table 2
row,Compound,Percentage of AURKA Degradation Induced by 1 µM Compound in Jurkat Cells
1,O=C1CCN(c2ccc(N3CCN(CCC(=O)Nc4ccc(Nc5ncc6c(n5)-c5ccc(Cl)cc5C(c5c(F)cccc5F)=NC6)cc4)CC3)cc2)C(=O)N1 [Compound A104],+++ (Degradation > 70%)
2,O=C1CCN(c2ccc(NCCN3CCn4c(cnc4-c4ccc(Nc5ncc6c(n5)-c5ccc(Cl)cc5C(c5c(F)cccc5F)=NC6)cc4)C3)cc2)C(=O)N1 [Compound A107],++ (30% < Degradation ≤ 70%)
3,O=C1CCN(c2ccc(N3CCN(C(=O)[C@H]4CN(c5ccc(Nc6ncc7c(n6)-c6ccc(Cl)cc6C(c6c(F)cccc6F)=NC7)cc5)CCO4)CC3)nc2)C(=O)N1 [Compound A325],+++ (Degradation > 70%)
4,O=C1CCN(c2cnc(N3CC(CN4CCN(c5ccc(Nc6ncc7c(n6)-c6ccc(Cl)cc6C(c6c(F)cccc6F)=NC7)cc5)C(=O)C4)C3)s2)C(=O)N1 [Compound A203],+++ (Degradation > 70%)
5,Cc1cc(N2CCC3(CC2)CC(NC(=O)c2ccc(Nc4ncc5c(n4)-c4ccc(Cl)cc4C(c4c(F)cccc4F)=NC5)cc2)C3)ncc1N1CCC(=O)NC1=O [Compound A110],++ (30% < Degradation ≤ 70%)
6,O=C1CCN(c2ccc(N3CC(CN4CCN(C(=O)C56CC(Nc7ncc8c(n7)-c7ccc(Cl)cc7C(c7c(F)cccc7F)=NC8)(C5)C6)CC4)C3)nc2)C(=O)N1 [Compound A279],+++ (Degradation > 70%)
7,O=C1CCN(c2ccc(N3CCC(C(=O)N4CCN(c5ccc(Nc6ncc7c(n6)-c6ccc(Cl)cc6C(c6nccs6)=NC7)cc5)CC4)CC3)nc2)C(=O)N1 [Compound A320],+++ (Degradation > 70%)
8,O=C1CCN(c2cncc(N3CCN(C4CN(c5cccc(Nc6ncc7c(n6)-c6ccc(Cl)cc6C(c6c(F)cccc6F)=NC7)c5)C4)CC3)c2)C(=O)N1 [Compound A183],+++ (Degradation > 70%)
9,O=C1CCN(c2ccc(N3CCOC(C(=O)N4CCN(c5ccc(Nc6ncc7c(n6)-c6ccc(Cl)cc6C(c6c(F)cccc6F)=NC7)cc5)CC4)C3)nc2)C(=O)N1 (stereo not drawn) [Compound A285],+++ (Degradation > 70%)
10,Cc1c(N2CCC(N3Cc4ccc(Nc5ncc6c(n5)-c5ccc(Cl)cc5C(c5c(F)cccc5F)=NC6)cc4C3)CC2)cccc1N1CCC(=O)NC1=O [Compound A179],++ (30% < Degradation ≤ 70%)
